According to PubChem BioAssay (NCI):
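Assay format: 96-well plates, 48-hour exposure. TGI is the concentration that stops growth completely.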

Experiments:
Assay in all cases: NCI anticancer screen, dose series, 48 h
[1] = system: A498 renal
[2] = system: IGROV1 ovarian
[3] = system: TK-10 renal
[4] = system: HCC-2998 colon
[5] = system: SR leukemia
[6] = system: SNB-75 CNS
[7] = system: RXF 393 renal

| Structure (SMILES) | TGI [1] | TGI [2] | TGI [3] | TGI [4] | TGI [5] | TGI [6] | TGI [7] |
| --- | --- | --- | --- | --- | --- | --- | --- |
| COC(=O)C1=C(C)N(NC(N)=O)C2(N)N(NC(N)=O)C(C)=C(C(=O)OC)C12C(=O)OC (stereo not drawn) | > 100 µM | > 100 µM | > 100 µM | > 100 µM | – | – | – |
| CCCN(CCCCC(NC(C)=O)C(=O)NCc1ccccc1)C(=O)NCCCl (stereo not drawn) | – | – | > 100 µM | > 100 µM | > 100 µM | > 100 µM | > 100 µM |
| CC(C)C(=O)/C=C/c1ccccc1 | > 100 µM | > 100 µM | – | > 100 µM | > 100 µM | > 100 µM | > 100 µM |
| O=C1NC(=S)NC(=O)C1=Cc1cc2c(cc1[N+](=O)[O-])OCO2 | > 100 µM | > 100 µM | > 100 µM | > 100 µM | > 100 µM | > 100 µM | > 100 µM |
| Cc1ccccc1-c1c(N)nc(NC#N)nc1C(=O)Nc1ccccc1 | > 100 µM | > 100 µM | > 100 µM | > 100 µM | > 100 µM | > 100 µM | > 100 µM |
| CC(C)N(C(=O)C12C3C4C5(C#N)C3C1(I)C5C42I)C(C)C (stereo not drawn) | > 100 µM | > 100 µM | > 100 µM | > 100 µM | > 100 µM | > 100 µM | > 100 µM |
| COC(=O)C1CC(C(=O)OC)c2nc3cc(C)ccc3nc21 (stereo not drawn) | > 100 µM | > 100 µM | > 100 µM | > 100 µM | – | > 100 µM | – |
| CCOc1ccc(N=Cc2cccc3cccnc23)cc1 | > 100 µM | > 100 µM | > 100 µM | > 100 µM | – | > 100 µM | > 100 µM |
| COC(=O)C(CCS(=O)(=O)CC(=O)C(=O)Nc1cccc(C(C)=O)c1)C(=O)OC | > 100 µM | > 100 µM | > 100 µM | > 100 µM | 50 µM | > 100 µM | > 100 µM |
| CC(=O)Nc1ccc(C(=O)N2N=C(C)/C(=C/c3ccccc3O)C2=O)cc1 | – | – | > 100 µM | > 100 µM | > 100 µM | > 100 µM | – |
| O=C(O)CNc1c2ccccc2nc2ccccc12 | – | > 100 µM | > 100 µM | > 100 µM | > 100 µM | > 100 µM | > 100 µM |
| N#CC(NNC(=O)c1ccccc1O)c1ccc(O)cc1 (stereo not drawn) | – | > 100 µM | > 100 µM | – | > 100 µM | – | 12.2 µM |
